Results: ChEMBL document CHEMBL5055661, “Cell-Based Drug Discovery: Identification and Optimization of Small Molecules that Reduce c-MYC Protein Levels in Cells” (J Med Chem, 2021)
In brackets after ≈: the same amount, converted by molar mass. Activity calls are given as the source filed them. No cut-off for these calls is given here.

Legend:
[1] = Reduction in cMyc expression in human COLO 320HSR cells incubated for 24 hrs by HTRF assay; type: functional, cell-based
[2] = Cmax in CD1 mouse at 5 mg/kg, po by LC-MS/MS analysis; type: ADME, organism-based; set-up: dose 5 mg/kg, route po; conditions: in vivo
[3] = Plasma protein binding in Han Wistar rat at 2 mg/kg, po by LC-MS/MS analysis; type: ADME, organism-based; conditions: read-out: PPB (converted)
[4] = Oral bioavailability in Han Wistar rat at 2 mg/kg by LC-MS/MS analysis; type: ADME, organism-based; conditions: in vivo
[5] = Volume of distribution at steady state in CD1 mouse at 0.51 mg/kg, iv by LC-MS/MS analysis; type: ADME, organism-based; conditions: in vivo, read-out: Vdss
[6] = Clearance in Han Wistar rat at 1 mg/kg, iv by LC-MS/MS analysis; type: ADME, organism-based; conditions: in vivo
[7] = AUC (0 to inf) in Han Wistar rat at 2 mg/kg, po by LC-MS/MS analysis; type: ADME, organism-based; set-up: time infinity, dose 2 mg/kg, route po; conditions: in vivo
[8] = Half life in CD1 mouse at 0.51 mg/kg, iv by LC-MS/MS analysis; type: ADME, organism-based; conditions: in vivo
[9] = Volume of distribution at steady state in Han Wistar rat at 1 mg/kg, iv by LC-MS/MS analysis; type: ADME, organism-based; conditions: in vivo, read-out: Vdss
[10] = Cmax in Han Wistar rat at 2 mg/kg, po by LC-MS/MS analysis; type: ADME, organism-based; set-up: dose 2 mg/kg, route po; conditions: in vivo
[11] = Oral bioavailability in CD1 mouse at 5 mg/kg by LC-MS/MS analysis; type: ADME, organism-based; conditions: in vivo
[12] = Half life in Han Wistar rat at 1 mg/kg, iv by LC-MS/MS analysis; type: ADME, organism-based; conditions: in vivo
[13] = Clearance in CD1 mouse at 0.51 mg/kg, iv by LC-MS/MS analysis; type: ADME, organism-based; conditions: in vivo
[14] = AUC (0 to inf) in CD1 mouse at 5 mg/kg, po by LC-MS/MS analysis; type: ADME, organism-based; set-up: time infinity, dose 5 mg/kg, route po; conditions: in vivo
[15] = Plasma protein binding in CD1 mouse at 5 mg/kg, po by LC-MS/MS analysis; type: ADME, organism-based; conditions: read-out: PPB (converted)
[16] = Permeability of the compound across artificial membrane by AMP assay; type: ADME; conditions: PAMPA; read-out: permeability
[17] = Solubility by CLND assay; type: physicochemical
[18] = Distribution coefficient, logD of the compound by chromatography; type: physicochemical; conditions: octanol/water
[19] = Decrease in nascent MYC mRNA level in human COLO 320HSR cells at 2 uM incubated for 75 mins by qRT-PCR analysis; type: functional; conditions: 1.25 h
COLO-320-HSR [20] = test: Effect on MCL-1 protein level in human COLO 320HSR cells incubated for 24 hrs by Western blot analysis; type: functional, cell-based
COLO-320-HSR [21] = test: Decrease in MYC mRNA level in human COLO 320HSR cells incubated for 6 hrs by qRT-PCR analysis; type: functional, cell-based
COLO-320-HSR [22] = test: Decrease in c-MYC protein level in human COLO 320HSR cells incubated for 24 hrs by Western blot analysis; type: functional, cell-based
[23] = Half life in Han Wistar rat at 1.9 mg/kg, iv by LC-MS/MS analysis; type: ADME, organism-based; conditions: in vivo
[24] = Volume of distribution at steady state in Han Wistar rat at 1.9 mg/kg, iv by LC-MS/MS analysis; type: ADME, organism-based; conditions: in vivo, read-out: Vdss
[25] = Oral bioavailability in Han Wistar rat at 5.3 mg/kg by LC-MS/MS analysis; type: ADME, organism-based; conditions: in vivo
[26] = Clearance in Han Wistar rat at 1.9 mg/kg, iv by LC-MS/MS analysis; type: ADME, organism-based; conditions: in vivo
[27] = AUC (0 to t) in Han Wistar rat at 5.3 mg/kg, po by LC-MS/MS analysis; type: ADME, organism-based; set-up: dose 5.3 mg/kg, route po; conditions: in vivo
[28] = Half life in Han Wistar rat at 0.54 mg/kg, iv by LC-MS/MS analysis; type: ADME, organism-based; conditions: in vivo
[29] = Clearance in Han Wistar rat at 0.54 mg/kg, iv by LC-MS/MS analysis; type: ADME, organism-based; conditions: in vivo
[30] = Volume of distribution at steady state in Han Wistar rat at 0.54 mg/kg, iv by LC-MS/MS analysis; type: ADME, organism-based; conditions: in vivo, read-out: Vdss

| Compound | EC50 [1] [nM] | other results |
| --- | --- | --- |
| CCN(CC)c1ccc(-c2nc3ccccc3n2Cc2cccc(C)n2)cn1 | 2510 |  |
| CCN(CC)c1ccc(-c2nc3c(C#N)cccc3n2Cc2ccn(CC)n2)cn1 | 1000 |  |
| CCN(CC)c1ccc(-c2nc3ccccc3n2Cc2ccn(CC)n2)cn1 | 631 |  |
| CCNc1ccc(-c2nc3ccccc3n2Cc2ccn(CC)n2)cn1 | 39800 |  |
| CCN(CC)c1ccc(-c2nc3ccccc3n2Cc2ccn(CC)n2)cc1 | 25100 |  |
| CCCCn1c(-c2ccc(N(CC)CC)nc2)nc2ccccc21 | 12600 |  |
| CCc1nc(Cn2c(-c3ccc(N(CC)CC)nc3)nc3ccccc32)cs1 | 1580 |  |
| CCN(CC)c1ccc(-c2nc3cc(OC)ccc3n2Cc2ccn(CC)n2)cn1 | 794 |  |
| CCc1ncc(Cn2c(-c3ccc(N(CC)CC)nc3)nc3ccccc32)o1 | 3160 |  |
| CNC(=O)c1cc(OC)c2c(c1)nc(-c1ccc(N3[C@@H](C)CC[C@@H]3C)nc1)n2C[C@@H]1CN(C)CCO1 |  | Papp [16]: 22 ×10⁻⁶ cm/s |
| C[C@@H]1CN(C)C[C@H](Cn2c(-c3ccc(N4[C@@H](C)CC[C@@H]4C)nc3)nc3ccccc32)O1 | 20000 | chromatographic logD [18]: 5.5 |
| CCn1ccc(Cn2c(-c3ccc(N4CCCC4)nc3)nc3ccccc32)n1 | 5010 |  |
| CCN(CC)c1ccc(-c2nc3cccc(C)c3n2Cc2ccn(C)n2)cn1 | 1000 |  |
| CCOCCn1c(-c2ccc(N3CCC[C@@H]3C)nc2)nc2ccccc21 | 1260 |  |
| CCN(CC)c1ccc(-c2nc3ccccc3n2CCOC)cn1 | 2510 |  |
| CCN(C)c1ccc(-c2nc3ccccc3n2Cc2ccn(CC)n2)cn1 | 3980 |  |

| Compound | EC50 [1] [nM] | other results |
| --- | --- | --- |
| CCN(CC)c1ccc(-c2nc3c(C(N)=O)cccc3n2Cc2ccn(CC)n2)cn1 | 2000 |  |
| CCN(CC)c1ccc(-c2cc3ccccc3n2Cc2ccn(CC)n2)cn1 | 7940 |  |
| CCN(CC)c1ccc(-c2nc3ccccc3n2CCc2ccn(CC)n2)cn1 | 25100 |  |
| CCOCCn1c(-c2ccc(N3CCC[C@H]3C)nc2)nc2ccccc21 | 12600 |  |
| CCOCCn1c(-c2ccc(N3[C@H](C)CC[C@@H]3C)nc2)nc2ccccc21 | 2000 |  |
| CCN(CC)c1ccc(-c2nc3cc(C(=O)N(C)C)ccc3n2CCOC(C)(C)C)cn1 | 3980 |  |
| CNC(=O)c1cc(OC)c2c(c1)nc(-c1ccc(N3[C@@H](C)CC[C@@H]3C)nc1)n2C[C@@H]1CNCCO1 |  | Papp [16]: 1.3 ×10⁻⁶ cm/s |
| CCN(CC)c1ccc(-c2nc3cccc(C#N)c3n2Cc2ccn(C)n2)cn1 | 2000 |  |
| CCN(CC)c1ccc(-c2nc3cc(C#N)ccc3n2Cc2ccn(CC)n2)cn1 | 1000 |  |
| CCN(CC)c1ccc(-c2nc3cc(C)ccc3n2Cc2ccn(CC)n2)cn1 | 631 |  |
| CCCN(CC)c1ccc(-c2nc3ccccc3n2Cc2ccn(CC)n2)cn1 | 1580 |  |
| C[C@H]1CN(C)C[C@@H](Cn2c(-c3ccc(N4[C@@H](C)CC[C@@H]4C)nc3)nc3ccccc32)O1 | 1580 | chromatographic logD [18]: 5.6 |
| CCN(CC)c1ccc(-c2nc3ccccc3n2Cc2cc[nH]n2)cn1 | 2510 |  |
| CCn1ccc(Cn2c(-c3ccc(N4CCCC4C)nc3)nc3ccccc32)n1 (stereo not given) | 1580 |  |
| CCNC(=O)c1cc(OC)c2c(c1)nc(-c1ccc(N3[C@@H](C)CC[C@@H]3C)nc1)n2C[C@@H]1CNCCO1 |  | Papp [16]: 1.9 ×10⁻⁶ cm/s |
| CCN(CC)c1ccc(-c2nc3cccc(NC)c3n2Cc2ccn(C)n2)cn1 | 631 |  |

The next lines start with results.

| EC50 [1] [nM] | Compound | other results |
| --- | --- | --- |
| 200 | CCN(CC)c1ccc(-c2nc3cc(C(=O)NCCO)ccc3n2CCOC(C)(C)C)cn1 |  |
| 398 | CCOCCn1c(-c2ccc(N(CC)CC)nc2)nc2ccccc21 |  |
| 501 | CCc1nc(Cn2c(-c3ccc(N(CC)CC)nc3)nc3ccccc32)co1 |  |
| 200 | CCN(CC)c1ccc(-c2nc3c(Cl)cccc3n2Cc2ccn(CC)n2)cn1 |  |
| 316 | CCN(CC)c1ccc(-c2nc3c(C)cccc3n2Cc2ccn(CC)n2)cn1 |  |
| 251 | CCN(CC)c1ccc(-c2nc3ccccc3n2Cc2ccn(C)n2)cn1 |  |
| 316 | CCN(CC)c1ccc(-c2nc3ccccc3n2CCOC(C)(C)C)cn1 |  |
| 63.1 | COc1cc(C(N)=O)c(F)c2nc(-c3ccc(N4CCC[C@@H]4C)nc3)n(C[C@@H]3CN(C)CCO3)c12 | Cmax [2]: 380 ng/mL; fraction unbound [3]: 0.04; bioavailability [4]: 100%; Vd [5]: 0.88 L/kg; clearance [6]: 14 mL/min/kg; AUC(0-inf) [7]: 4300 ng·h/mL; half-life [8]: 0.55 h; Vd [9]: 2.5 L/kg; Cmax [10]: 500 ng/mL; bioavailability [11]: 43%; half-life [12]: 6.4 h; clearance [13]: 24 mL/min/kg; AUC(0-inf) [14]: 1240 ng·h/mL; fraction unbound [15]: 0.03 |
| 251 | CCOCCn1c(-c2ccc(N3[C@@H](C)CC[C@@H]3C)nc2)nc2ccccc21 | solubility kinetic [17]: 254 µM (≈ 92.6 µg/mL); chromatographic logD [18]: 6.4; Papp [16]: 54.5 ×10⁻⁶ cm/s |
| 158 | CCN(CC)c1ccc(-c2nc3cc(C(N)=O)ccc3n2CCOC(C)(C)C)cn1 |  |
| 251 | CCN(CC)c1ccc(-c2nc3ccccc3n2CCOC(C)C)cn1 |  |
| 501 | CCN(CC)c1ccc(-c2nc3ccccc3n2Cc2coc(C)n2)cn1 |  |
| 398 | CCOc1cccc2nc(-c3ccc(N(CC)CC)nc3)n(Cc3ccn(C)n3)c12 |  |
| 126 | CCN(CC)c1ccc(-c2nc3cc(C(=O)NC)ccc3n2Cc2ccn(CC)n2)cn1 | inhibition at 2 µM [19]: 50%; Activity (COLO-320-HSR [20]): inactive; Activity (COLO-320-HSR [21]): Dose-dependent effect; Activity (COLO-320-HSR [22]): Dose-dependent effect |
| 79.4 | COc1cccc2nc(-c3ccc(N4[C@@H](C)CC[C@@H]4C)nc3)n(C[C@@H]3CN(C)C[C@H](C)O3)c12 | chromatographic logD [18]: 6.8 |
| 79.4 | COc1cc(C(N)=O)cc2nc(-c3ccc(N4[C@@H](C)CC[C@@H]4C)nc3)n(C[C@@H]3CN(C)CCO3)c12 |  |
| 126 | COc1cccc2nc(-c3ccc(N4[C@@H](C)CC[C@@H]4C)nc3)n(C[C@@H]3CNCCO3)c12 | half-life [23]: 5.1 h; chromatographic logD [18]: 4; Vd [24]: 6.3 L/kg; bioavailability [25]: 63%; clearance [26]: 35 mL/min/kg; AUC(0-t) [27]: 1600 ng·h/mL |
| 20 | COc1cc(C(N)=O)c(F)c2nc(-c3ccc(N4[C@@H](C)CC[C@@H]4C)nc3)n(C[C@@H]3CN(C)CCO3)c12 |  |
| 63.1 | CNC(=O)c1cc(OC)c2c(nc(-c3ccc(N4[C@@H](C)CC[C@@H]4C)nc3)n2C[C@@H]2CN(C)CCO2)c1F | Cmax [2]: 205 ng/mL; fraction unbound [3]: 0.05; bioavailability [4]: 83%; clearance [6]: 11 mL/min/kg; AUC(0-inf) [7]: 3160 ng·h/mL; Vd [9]: 2.8 L/kg; Cmax [10]: 180 ng/mL; bioavailability [11]: 26%; half-life [12]: 4.3 h; AUC(0-inf) [14]: 784 ng·h/mL; fraction unbound [15]: 0.07 |
| 158 | CCN(CC)c1ccc(-c2nc3cc(C(=O)NCC4CC4)ccc3n2CCOC(C)(C)C)cn1 |  |
| 79.4 | CCN(CC)c1ccc(-c2nc3cccc(OC)c3n2Cc2ccn(C)n2)cn1 |  |
| 25.1 | COc1cccc2nc(-c3ccc(N4[C@@H](C)CC[C@@H]4C)nc3)n(Cc3ccn(C)n3)c12 | half-life [28]: 1 h; clearance [29]: 190 mL/min/kg; Vd [30]: 6 L/kg |
| 100 | Cc1cccc2nc(-c3ccc(N4[C@@H](C)CC[C@@H]4C)nc3)n(Cc3ccn(C)n3)c12 | solubility kinetic [17]: 309 µM (≈ 124 µg/mL); chromatographic logD [18]: 7; Papp [16]: 64 ×10⁻⁶ cm/s |
| 158 | COc1cccc2nc(-c3ccc(N4[C@@H](C)CC[C@@H]4C)nc3)n(C[C@@H]3CNC[C@H](C)O3)c12 | chromatographic logD [18]: 4.4 |
| 25.1 | CCOCCn1c(-c2ccc(N3[C@@H](C)CC[C@@H]3C)nc2)nc2cccc(OC)c21 |  |
